Columns and labels:
rat colon tissue [1] = assay: Kinetic measurement of total sulfide in rat colon tissue slices; assay type: in vivo; conditions: probe 2-6; for kobs in colon tissue: after 5-FU 150 mg/kg i.p., 8 hours; for total sulfide concentration in colon tissue: after 5-FU treatment
Method: To quantitatively estimate the total sulfide concentration, kinetic experiments were performed in the colon tissue labeled with the compound of [Chemical Formula 2-6].
(§1) Male Sprague-Dawley rats (235-265 g) were divided into two groups (5-FU and control groups). In the 5-FU group, 150 mg/kg of 5-FU (SoloPak Laboratories, Franklin Park, Ill.) were intraperitoneally injected into the rats. The rats of the control group were injected with saline. Each group consisted of 4 rats.
(§2) 8 hours after the intraperitoneal injection, all the rats were sacrificed. Laparotomy was performed after anesthetizing the rats.
Kinetic experiments in rat colon tissue were performed using four colon slices obtained from four rats. Two sets of experiments were performed for each slice. In each set, TPEF intensities from 8 ROI's/section were collected at depths of 90-150 μm (mucosa) and 151-170 μm (submucosa) in the colon tissue labeled with the compound of [Chemical Formula 2-6] and averaged.
The rate constant (kobs) was measured from 7 and 3 sections of the mucosa and submucosa tissues, respectively, in order to obtain 112 kobs and 48 kobs values, respectively. The rate constant (kobs) was expressed as mean±SD and p was set to be smaller than 0.05.

rat colon tissue [2] = assay: Ratiometric TPM imaging (F2/F1) of rat colon slices; assay type: in vivo; conditions: rats given 5-FU 150 mg/kg i.p., 8 hours, probe 2-6
Method: The utility of the compound of [Chemical Formula 2-6] was investigated in living tissues from a 5-week-old rat colon. The inventors were particularly interested in the mucosa, muscularis mucosae and submucosa because they are invaded in the early stage of tumor (FIG. 4c). Since it takes a long time to stain the tissues during which they may be deformed, excess amount (20 μM) of the compound of [Chemical Formula 2-6] was used to facilitate staining.
Because the structure of the colon tissue is heterogeneous, TPEF intensities were acquired from 150 sections along the z-direction at a depth of about 90-170 μm using two detection windows (1 and 2) to visualize the overall sulfide distribution.
Therefore, the sections were divided into two regions and they were assigned as mucosa (90-150 μm) and submucosa including the muscularis mucosae (151-170 μm).
as §1
All the rats were injected between 9 pm and 12 midnight, were allowed free access to food and water and were housed in the same room with 8-hour cycles.
as §2
Slices were prepared from the colon of the rats. The colon slices were cut into 2-cm long segments, opened by longitudinal incision and then treated with Dulbecco's phosphate-buffered saline (D-PBS; […]).
The colon slices were incubated with the compound of [Chemical Formula 2-6] (20 μM) in D-PBS bubbled with 95% O2 and 5% CO2 at 37° C. The colon slices were then moved to glass-bottomed dishes, washed 3 times with D-PBS and observed under a confocal multiphoton microscope.
TPEF intensities were collected using detection windows of 390-450 nm and 520-650 nm, with 110 sections at a depth of 90-150 μm (mucosa) and 40 sections at a depth of 151-170 μm (submucosa).
Then ratiometric images were constructed from the TPEF intensities collected using the two detection window. The F2/F1 ratio was expressed as mean±SD and p was set to be smaller than 0.05.

HeLa cells [3] = assay: Two-photon excited fluorescence spectra of labeled HeLa cells; assay type: cell-based, human
Method: Accordingly, it can be seen that HEPES/EtOH (1/1) has polarity similar to that of the cellular environment.
This confirms again that HEPES/EtOH (1/1) is a good model of the cellular environment and HS^− can be detected by TPM using the compound of [Chemical Formula 2-6].
HeLa human cervical carcinoma cells were acquired from the ATCC (Manassas, Va., USA). The cells were cultured in DMEM (WelGene, Inc., Seoul, Korea) supplemented with heat-inactivated 10% FBS (WelGene), penicillin (100 units/mL) and streptomycin ([…]).
For labeling, the growth medium was removed and replaced with DMEM without FBS. The cells were incubated with the compound of [Chemical Formula 2-6] ([…]) for 30 minutes, washed 3 times with FBS-free DMEM and imaged.
The TPM images were obtained with the DM IRE2 microscope (Leica) by exciting the probes with a mode-locked titanium-sapphire laser source (Coherent Chameleon, 90 MHz, 200 fs) set at a wavelength of 750 nm and an output power of 1380 mW, which corresponded to an average power of approximately 2 mW in the focal plane.

[4] = Measurement of two-photon cross section (fs fluorescence technique, rhodamine 6G reference); assay type: physicochemical; conditions: for Φδmax, two-photon action cross section: uncertainty ±15%
Method: Two-photon cross section (δ) was determined using a femtosecond (fs) fluorescence measurement technique.
The compound of [Chemical Formula 2-5] and the compound of [Chemical Formula 2-6] were dissolved in 20 mM HEPES buffer (pH 7.2) and 3.0×10^−6 M HEPES/EtOH (1/1) and then two-photon induced fluorescence intensity was measured at 740-940 nm using rhodamine 6G as a reference, whose two-photon property has been well characterized. The two-photon fluorescence intensities of the reference and the compound of [Chemical Formula 2-6] and the compound of [Chemical Formula 2-5] were determined.
The two-photon cross section was calculated from δ=δr(Ssφrφrcr)/(Srφsφscs). In the equation, the subscripts s and r stand for the sample, i.e., the compound of [Chemical Formula 2-6] and the compound of […], respectively. S denotes the intensity of the signal collected using a CCD detector, φ is the fluorescence quantum yield (measured using coumarin 307 and rhodamine B according to the literature), […] fluorescence collection efficiency, and c is the number density of molecules in solution. δr is the two-photon cross section of the reference molecule.

[5] = pH sensitivity of the fluorescence; assay type: physicochemical; conditions: biologically relevant pH range
[6] = One-photon absorption and emission spectra, fluorescence quantum yield; assay type: physicochemical; conditions: for 10^−4 ε: value is ε×10^−4
Method: The solvatochromic effect observed for the compound of [Chemical Formula 2-6] may have resulted from the […] dipole moment.
Absorption spectra were recorded on the Hewlett-Packard 8453 diode array spectrophotometer and fluorescence spectra were obtained with the Amico-Bowman series 2 luminescence spectrometer with a 1-cm standard quartz cell.

HeLa cells [7] = assay: Kinetic estimation of total sulfide concentration in HeLa cells (TPEF); assay type: cell-based, human
Method: To quantitatively estimate the total sulfide concentration in living cells, the TPEF intensity of HeLa cells labeled with the compound of [Chemical Formula 2-6] was monitored in the absence and presence of Na2S, cysteine (Cys) and glutathione (GSH) with 20-30 minute intervals.
Since H2S and HS^− are in equilibrium and [H2S]/[HS^−]=[H^+]/Ka=0.794 in HEPES/EtOH (1/1, pH=7.2), it seems appropriate to present the total sulfide concentration ([H2S]+[HS^−]).
Kinetic experiments in HeLa cells were conducted in the same manner except that TPEF intensities from HeLa cells labeled with the compound of [Chemical Formula 2-6] upon excitation at 750 nm were monitored with 20-30 minute intervals.
The average TPEF intensities at given time and the SB2/SA1 ratio was obtained by dividing the TPEF intensity of [Chemical Formula 2-6] at 390-450 nm by that of [Chemical Formula 2-5] at 525-650 nm in the HeLa cells (FIG. 1b) were used in the kobs calculation.
The kobs value was measured at 10 regions of interest (ROIs) from three independent cell lines.
To evaluate the effect of Na2S, cysteine and GSH, HeLa cells were incubated with the compound of [Chemical Formula 2-6] (2 μM) and then treated with Na2S (100, 300 μM), cysteine (500 μM) and GSH (500 μM) for 30 minutes. The cells were then washed 3 times with FBS-free DMEM and subjected to kinetic measurement.

physchem = conditions: pH 7.2
Method: The pKa value of H2S in HEPES/EtOH (1/1, pH 7.2) was estimated by using the following equations. HS^−+H2O⇄H2S+HO^− K1=[H2S][HO^−]/[HS^−] (1) H2O⇄H^++HO^− Kw=[H^+][HO^−] (2) H2S⇄H^++HS^− Ka=[H^+][HS^−]/[H2S]=Kw/K1 (3)
First, the pH of the solution containing 10.0 mM NaSH was measured in H2O/EtOH (1/1) at 37.0° C. using a pH meter.
The K1 value was calculated from the equation (1) using [HS^−]o=10.0 mM and pH=9.00.
The pKa value of H2S in HEPES/EtOH (1/1, pH 7.2) was then calculated from the equation (3) using K1=1.00×10^−8M and pKw=15.10 reported in H2O/EtOH (1/1).

[8] = HEPES buffer (20 mM HEPES, 100 mM KCl, pH 7.4)
[9] = cells treated with 500 μM additive, probe 2-6

Which “kobs in colon tissue” value (rat colon tissue [1]; mucosa) does the source give for `O=c1[nH]cc(F)c(=O)[nH]1` [5-fluorouracil, reference compound] here?
The value was “(4.0±0.7)×10^−5 s^−1”.

And the “total sulfide concentration in colon tissue” value (rat colon tissue [1]; mucosa)?
The value was 14 ± 3 µM.

What about the “kobs in colon tissue” value (rat colon tissue [1]; submucosa) of the same compound?
Its value is “(2.3±0.6)×10^−5 s^−1”.

And the “total sulfide concentration in colon tissue” value (rat colon tissue [1]; submucosa)?
Its value is 7.9 ± 2.2 µM.

And the “emission ratio F2/F1” value (rat colon tissue [2]; mucosal layer)?
Its value is 0.98±0.07.

What about the “emission ratio F2/F1” value (rat colon tissue [2]; submucosa) of the same compound?
The value was 0.84±0.05.

For `COCCOCCC1(CCOCCOC)c2cc(N)ccc2-c2ccc(-c3nc4ccccc4s3)cc21` [Chemical Formula 2-5], which “λ^flmax, maximum emission in cells” value (HeLa cells [3]) is on record?
The value was 520 nm.

What about the “λ^(2)max, two-photon maximum” value ([4]; HEPES) of the same compound?
Its value is 750 nm.

And the “Φδmax, two-photon action cross section” value ([4]; HEPES buffer, 2-6 at 740 nm, 2-5 at 750 nm)?
Its value is 52 GM.

What about the “λ^(2)max, two-photon maximum” value ([4]; HEPES/EtOH (1/1)) of the same compound?
The value was 750 nm.

What about the “increase of action cross section (φδ) in HEPES/EtOH (1/1) versus HEPES buffer” value ([4]; HEPES/EtOH (1/1) vs HEPES buffer) of the same compound?
Its value is “about 2 fold”.

What about the “Φδmax, two-photon action cross section” value ([4]; HEPES/EtOH (1/1), GM = 10^−50 cm^4s/photon) of the same compound?
Its value is 94 GM.

And the pH sensitivity [5]?
The pH sensitivity was “pH-insensitive”.

What about the “Δλ^FImax, shift of emission spectrum with solvent polarity” value ([6]; 1,4-dioxane<DMF<EtOH<HEPES/EtOH (1/1)<HEPES buffer) of the same compound?
The value was 95 nm.

What about the “Φ, fluorescence quantum yield” value ([6]; EtOH) of the same compound?
Its value is 0.87.

And the “λ^(1)max, one-photon absorption maximum” value ([6]; EtOH)?
Its value is 381 nm.

What about the “λ^flmax, one-photon emission maximum” value ([6]; EtOH) of the same compound?
The value was 498 nm.

What about the “10^−4 ε” value ([6]; EtOH) of the same compound?
The value was “(4.81) M^−1cm^−1”.

And the “Φ, fluorescence quantum yield” value ([6]; HEPES buffer)?
Its value is 0.46.

And the “λ^(1)max, one-photon absorption maximum” value [6, 8]?
Its value is 363 nm.

And the “λ^flmax, one-photon emission maximum” value [6, 8]?
The value was 548 nm.

What about the “ε at maximum absorption” value ([6]; HEPES buffer, pH 7.4) of the same compound?
Its value is 39100 M⁻¹ cm⁻¹.

And the “Φ, fluorescence quantum yield” value ([6]; HEPES/EtOH (1/1))?
Its value is 0.81.

What about the “λ^(1)max, one-photon absorption maximum” value ([6]; HEPES/EtOH (1/1)) of the same compound?
Its value is 368 nm.

And the “λ^flmax, one-photon emission maximum” value ([6]; HEPES/EtOH (1/1))?
Its value is 530 nm.

And the “10^−4 ε” value ([6]; HEPES/EtOH (1/1))?
The value was “(4.77) M^−1cm^−1”.

And the “10^−4 ε” value ([6]; HEPES)?
Its value is “(3.91) M^−1cm^−1”.

What does the source list for `N[C@@H](CS)C(=O)O` [Cys, cysteine]?
kobs in labeled HeLa cells (HeLa cells [7]; [9]): (1.4±0.7)×10^−6 s^−1; total sulfide concentration ([H2S]+[HS^−]) in HeLa cells (HeLa cells [7]; [9]): 0.50 ± 0.23 µM

What does the source list for `N[C@@H](CCC(=O)N[C@@H](CS)C(=O)NCC(=O)O)C(=O)O` [GSH, glutathione]?
kobs in labeled HeLa cells (HeLa cells [7]; [9]): (6.3±1.8)×10^−6 s^−1; total sulfide concentration ([H2S]+[HS^−]) in HeLa cells (HeLa cells [7]; [9]): 2.2 ± 0.6 µM

For `S` [H2S, Hydrogen sulfide], which pKa (physchem) is on record?
The pKa was 7.1.

Which results are given for `[Na+].[Na+].[S-2]` [Na2S]?
kobs in labeled HeLa cells (HeLa cells [7]; cells pretreated with 100 μM Na2S, probe 2-6): (2.6±0.9)×10^−6 s^−1; total sulfide concentration ([H2S]+[HS^−]) in HeLa cells (HeLa cells [7]; cells pretreated with 100 μM Na2S, from kobs, k2=5.17 M^−1s^−1, [H2S]/[HS^−]=0.794): 0.90 ± 0.32 µM; kobs in labeled HeLa cells (HeLa cells [7]; cells pretreated with 300 μM Na2S, probe 2-6): (7.9±1.9)×10^−6 s^−1; total sulfide concentration ([H2S]+[HS^−]) in HeLa cells (HeLa cells [7]; cells pretreated with 300 μM Na2S, from kobs, k2=5.17 M^−1s^−1, [H2S]/[HS^−]=0.794): 2.7 ± 0.7 µM

— patent publication US9220794B2, “Two-photon fluorescent probes for imaging of total sulfide in live cell and tissue, and quantitative estimation of total sulfide concentration using the same” (Korea University Research and Business Foundation, priority 2013, dated 2015)
